The assay relates to patients with moderate-to-severe post-surgical (dental) pain. The experiment in a line: Randomized, double-blind, single-dose, placebo- and comparator-controlled study of pain relief by administered dose. It counts as in vivo, human. Here is the method: A 336-patient, seven treatment arm, randomized, double-blind, single-dose, and placebo- and comparator-controlled, parallel-group study was conducted. Patients were randomly assigned to receive a single dose of either diclofenac sodium solubilized with hydroxypropyl-beta-cyclodextrin (hereinafter “DIC”), ketorolac tromethamine, or placebo.
Bolus IV injectable 2 ml solutions were prepared by solubilizing diclofenac sodium with hydroxypropyl-beta-cyclodextrin. The formulation strengths were as follows: • Formulation: Diclofenac sodium solubilized with hydroxypropyl-β-cyclodextrin • Strengths: 75 mg, 37.5 mg, 18.75 mg, 9.4 mg and 3.75 mg • Dosage: Bolus IV injection (no less than 15 sec) • Batch Number: 063004 (PPS4010) • Manufacturer: Manufactured for Javelin by Precision Pharma • Storage Conditions: Room temperature
Active Control/Comparator: • Formulation: Ketorolac Tromethamine • Strength: 30 mg • Dosage: Bolus IV injection (no less than 15 sec) • Batch Number: 21-430-DK • Manufacturer: Abbott Labs • Storage Conditions: Room temperature
Pain was assessed by each patient at Baseline (0 hour: Visual Analog Scale (VAS) and categorical pain intensity only), at 5, 15, 30 and 45 minutes, and at 1, 1.5, 2, 3, 4, 5, 6, 7, 8, 10, 12 and 24 hours after administration of study medication and immediately prior to the first dose of rescue medication. At each post-dose time period, levels of pain intensity (categorical and VAS) and pain relief (categorical and VAS) was assessed by each patient. […]
The presence of a dose-response was tested with a step-down testing procedure. Total pain relief (TOTPAR), peak pain relief, pain intensity difference (SPID), summed peak reduction in pain intensity difference (SPRID), and patient global evaluation was analyzed with analysis of variance (ANOVA) with treatment, center, and baseline categorical pain intensity as factors. […] Time to onset of perceptible relief and time to onset of meaningful relief was analyzed with survival analysis techniques. […] A 95% confidence interval for each estimated median time to event was calculated. […]

Regarding `O=C(c1ccccc1)c1ccc2n1CCC2C(=O)O` (stereo not drawn) [ketorolac, ketorolac tromethamine], for the setting “30 mg single bolus IV injection (active comparator)”, the “% Maximum Effect (TOTPAR)” value is listed as 100%. The “TOTPAR (Sum of Pain Relief VAS 0–100 mm ratings 0–6 hours)” value (30 mg single bolus IV injection (active comparator), value (SEM)) is 400.3 (SEM 36). For the same compound, the “peak analgesic response compared with that of diclofenac (about 80% pain relief)” value (30 milligrams) is recorded as “Similar”.

(Values after patent publication US20070232567A1, “Formulations Of Low Dose Non-Steroidal Anti-Inflammatory Drugs And Beta-Cyclodextrin” (priority 2006, published 2007).)
